Measured values published in ChEMBL document CHEMBL3400133, “Three new fusidic acid derivatives and their antibacterial activity” (2015).
Activity calls are given as the source filed them. No cut-off for these calls is given here.

Columns and labels:
[1] = tested on: Escherichia coli; assay: Antibacterial activity against Escherichia coli XL-1 Blue assessed as inhibition of microbial growth at 0.064 ug/ml to 125 ug/ml incubated at 37 degC for 20 hrs; format: functional, organism-based
[2] = tested on: Staphylococcus aureus; assay: Antibacterial activity against Staphylococcus aureus ATCC 25923 assessed as inhibition of microbial growth at 0.064 ug/ml to 125 ug/ml incubated at 37 degC for 20 hrs; format: functional; details: ATCC 25923, 20 h
[3] = tested on: Staphylococcus aureus; assay: Antibacterial activity against methicillin-resistant Staphylococcus aureus ATCC 33591 assessed as inhibition of microbial growth at 0.064 ug/ml to 125 ug/ml incubated at 37 degC for 20 hrs; format: functional; details: ATCC 33591, 20 h

For `CC(=O)O[C@@H]1[C@H]2[C@H](C)[C@H](O)CC[C@]2(C)[C@@H]2CC[C@H]3/C(=C(\CCC=C(C)C)C(=O)O)[C@@H](OC(C)=O)C[C@]3(C)[C@@]2(C)[C@H]1O`, the MIC [1] was “inactive”, the MIC [2] was 8 µg/mL and the MIC [3] was 8 µg/mL.

In the case of `CC(=O)O[C@H]1C[C@@]2(C)[C@@H](CC[C@H]3[C@@]4(C)CC[C@@H](O)[C@@H](C)[C@@H]4[C@@H](O)[C@H](OC(C)=O)[C@@]32C)/C1=C(\CCC=C(C)C)C(=O)O`, the MIC [1] is reported as “inactive”, the MIC [2] is reported as 64 µg/mL and the MIC [3] is reported as 125 µg/mL.

For `CC(=O)OC1C[C@@]2(C)[C@@H](CC[C@H]3[C@@]4(C)CCC(=O)[C@@H](C)[C@@H]4[C@@H](O)[C@H](O)[C@@]32C)/C1=C(\CCC=C(C)C)C(=O)O` (single isomer, unassigned), the MIC [1] was “inactive”, the MIC [2] was over 125 µg/mL and the MIC [3] was over 125 µg/mL.

With `CC(=O)OC1C[C@@]2(C)[C@@H](CC[C@H]3[C@@]4(C)CCC(=O)[C@@H](C)[C@@H]4[C@@H](O)[C@H](OC(C)=O)[C@@]32C)/C1=C(\CCC=C(C)C)C(=O)O` (single isomer, unassigned) the MIC [1] was “inactive”, the MIC [2] was 64 µg/mL and the MIC [3] was over 125 µg/mL.

`CC(=O)OC1C[C@@]2(C)[C@@H](CC[C@H]3[C@@]4(C)CCC(=O)[C@@H](C)[C@@H]4[C@@H](OC(C)=O)[C@H](O)[C@@]32C)/C1=C(\CCC=C(C)C)C(=O)O` (single isomer, unassigned) was tested, and the MIC [1] was “inactive”, the MIC [2] was 4 µg/mL and the MIC [3] was 8 µg/mL.

`NC[C@H]1O[C@H](O[C@H]2[C@H](O)[C@@H](O[C@H]3O[C@H](CO)[C@@H](O)[C@H](N)[C@H]3O)[C@H](N)C[C@@H]2N)[C@H](O)[C@@H](O)[C@@H]1O` [KANAMYCIN] gave an MIC [2] of 2 µg/mL and an MIC [3] of over 125 µg/mL.
